Reference: patent publication US12604900B2, “Penflufen as a wood preservative against wood- destroying basidiomy cetes” (LANXESS Deutschland GmbH, priority 2010, dated 2026)
Where two headings read alike, the source gives them in different places. Blank lines part the entries; values can stand above or below the molecule they belong to.

What was measured:
Coriolus versicolor [1] = assay: Synergism test (MIC of radial hyphae growth, SI by Kull); type: cell-based; conditions: Trametes versicolor
Method: (§1) Mycelium pieces were punched out of a colony of the wood-destroying fungus in question and incubated on a malt extract/peptone-containing nutrient agar at 26° C. The growth of the hyphae with and without active compound was compared. The minimum inhibitory concentration (MIC) stated was the concentration at which the radial hyphae growth was suppressed completely.
(§2) The synergism was determined using the method described by Kull et al. (F. C. Kull, P. C. Eismann, H. D. Sylvestrowicz, R. L. Mayer, Applied Microbiology 1961, 9, 538-541).

Coniophora puteana [2] = assay: Inhibition test with giant colonies of wood-destroying basidiomycetes; type: cell-based; conditions: 168 h, 1 ppm active compound, agar, 26° C., about 1 week
Method: (§3) Mycelium pieces were punched out of colonies of Coniophora puteana, Poria placenta, Lentinus tigrinus, Coriolus versicolor and Gloeophyllum trabeum and incubated on an agar nutrient soil at 26° C. The inhibition of the growth of the hyphae on active compound-comprising nutrient soil was compared to the longitudinal growth without addition of active compound and rated as inhibition in percent (incubation time: about 1 week, depending on the fungal growth of the comparative sample without active compound).

Coriolus versicolor [3] = assay: as above; type: cell-based; conditions: Trametes versicolor, 168 h; 1 ppm active compound, agar, 26° C., about 1 week
Method: as §3

Gloeophyllum trabeum [4] = assay: as above; type: cell-based; conditions: 168 h, 1 ppm active compound, agar, 26° C., about 1 week
Method: as §3

Lentinus tigrinus [5] = assay: as above; type: cell-based; conditions: 168 h, 1 ppm active compound, agar, 26° C., about 1 week
Method: as §3

Poria placenta [6] = assay: as above; type: cell-based; conditions: 168 h; 1 ppm active compound, agar, 26° C., about 1 week
Method: as §3

Poria placenta [7] = assay: Synergism test (MIC of radial hyphae growth, SI by Kull); type: cell-based
Method: as §1, §2

Coniophora puteana [8] = assay: as above; type: cell-based
Method: as §1, §2

Lentinus tigrinus [9] = assay: as above; type: cell-based; conditions: read-out: MIC (ppm) Lentinus tigrinus
Method: as §1, §2

Stereum sanguinolentum = assay: as above; type: cell-based; conditions: 2.4 penflufen and tebuconazole, read-out: MIC against Stereum sanguinolentum (ppm)
Method: as §1, §2

Gloeophyllum trabeum [10] = assay: as above; type: cell-based; conditions: 2.3 penflufen and copper(II) oxide, read-out: MIC against Gloeophyllum trabeum (ppm)
Method: Mycelium pieces were punched out of a colony of the wood-destroying fungus in question and incubated on a malt extract/peptone-containing nutrient agar at 26° C. […] The minimum inhibitory concentration (MIC) stated was the concentration at which the radial hyphae growth was suppressed completely.

Poria placenta [11] = assay: Activity test analogously to EN113 on drenched pine specimens; conditions: for Loss of mass [%]: pine, 6 weeks, mean of 6 specimens (untreated: 20)
Method: (§4) Penflufen (I) was tested analogously to the EN113 standard test for activity against wood-destroying fungi. In contrast to the standard test, smaller pieces of wood were used and the pieces of wood were exposed to attack by the fungi for a shorter period of time.
(§5) To this end, dried test specimen (25×15×4 mm) made of pine (Pinus sylvestris) were in each case vacuum-drenched with solutions of penflufen (I) in toluene. From the concentration of penflufen (I) in the drench solution and the uptake of the drench solution into the test specimen, the amount of active compound taken up by the test specimen (retention) was calculated. The test specimens were dried and then weighed. To prevent falsifying colonisation by foreign pathogens, the test specimen were sterilised with y rays.
The test specimen were brought into contact with the wood-destroying organism Poria placenta and stored for 6 weeks. The test pieces of wood were then cleaned, dried and weighed. This was used to calculate the loss of mass. For each retention, the mean of 6 test specimens was determined.

Coniophora puteana [12] = assay: as above; conditions: for Loss of mass [%]: pine, 6 weeks, mean of 6 specimens (untreated: 24)
Method: as §4, §5
The test specimens were brought into contact with the wood-destroying organism Coniophora puteana and stored for 6 weeks. The test pieces of wood were then cleaned, dried and weighed. This was used to calculate the loss of mass. For each retention, the mean of 6 test specimens was determined.

[13] = 2.9 penflufen and bifenthrin, read-out: MIC against Coriolus versicolor (ppm)
[14] = 2.2 penflufen and fenpropimorph, read-out: MIC (ppm) Coniophora puteana
[15] = 2.2 penflufen and fenpropimorph
[16] = 2.5 penflufen and propiconazole, read-out: MIC against Coniophora puteana (ppm)
[17] = 2.1 penflufen and thiabendazole, malt extract/peptone agar 26° C., read-out: MIC against Coriolus versicolor (ppm)
[18] = 2.6 penflufen and permethrin, read-out: MIC against Poria placenta (ppm)
[19] = result in words, EN113-like test
[20] = retention of penflufen 50 g/m^3

Compound: Cc1c(COC(=O)[C@@H]2[C@H](/C=C(\Cl)C(F)(F)F)C2(C)C)cccc1-c1ccccc1 (racemic) [bifenthrin, reference compound]
MIC (Coriolus versicolor [1]; [13]): 60 µg/mL

Compound: C=C(c1ccccc1NC(=O)c1c(C)nn(C)c1F)C(C)C [III]
inhibition at 1 ppm (Coniophora puteana [2]): 25% | inhibition at 1 ppm (Coriolus versicolor [3]): 78% | inhibition at 1 ppm (Gloeophyllum trabeum [4]): 18% | inhibition at 1 ppm (Lentinus tigrinus [5]): 37% | inhibition at 1 ppm (Poria placenta [6]): 45%

Compound: CCCC(C)c1ccccc1NC(=O)c1c(C)nn(C)c1F (stereo not shown) [II]
inhibition at 1 ppm (Coniophora puteana [2]): 12% | inhibition at 1 ppm (Coriolus versicolor [3]): 15% | inhibition at 1 ppm (Gloeophyllum trabeum [4]): 11% | inhibition at 1 ppm (Lentinus tigrinus [5]): 17% | inhibition at 1 ppm (Poria placenta [6]): 3%

Compound: CC1(C)C(C=C(Cl)Cl)C1C(=O)OC(C#N)c1cccc(Oc2ccccc2)c1 (stereo not shown) [cypermethrin, reference compound]
MIC (Coriolus versicolor [1]; read-out: MIC (ppm) Coriolus versicolor): > 100 µg/mL | MIC (Poria placenta [7]; read-out: MIC (ppm) Poria placenta): > 100 µg/mL

Compound: CCOc1ccc(C(C)(C)COCc2cccc(Oc3ccccc3)c2)cc1 [etofenprox, reference compound]
MIC (Poria placenta [7]; 2.7 penflufen and etofenprox, read-out: MIC against Poria placenta (ppm)): > 100 µg/mL

Compound: CC(Cc1ccc(C(C)(C)C)cc1)CN1C[C@@H](C)O[C@@H](C)C1 (stereo partly shown) [fenpropimorph, reference compound]
MIC (Coniophora puteana [8]; [14]): 30 µg/mL | MIC (Lentinus tigrinus [9]; [15]): 30 µg/mL

MIC (Coniophora puteana [8]; [14]): 1 µg/mL | MIC (Coniophora puteana [8]; [16]): 3 µg/mL | MIC (Coniophora puteana [8]; 2.8 penflufen and prochloraz, read-out: MIC (ppm) Coniophora puteana): 3 µg/mL | MIC (Coriolus versicolor [1]; 2.10 penflufen and cypermethrin, read-out: MIC (ppm) Coriolus versicolor): 0.1 µg/mL | MIC (Coriolus versicolor [1]; [17]): 0.3 µg/mL | MIC (Coriolus versicolor [1]; [13]): 0.1 µg/mL | MIC (Lentinus tigrinus [9]; [15]): 0.5 µg/mL | MIC (Lentinus tigrinus [9]; 2.8 penflufen and prochloraz): 0.3 µg/mL | MIC (Poria placenta [7]; 2.10 penflufen and cypermethrin, read-out: MIC (ppm) Poria placenta): 0.1 µg/mL | MIC (Poria placenta [7]; [18]): 0.1 µg/mL | MIC against Poria placenta (ppm) (Poria placenta [7]; 2.7 penflufen and etofenprox): 0.1 ppm | MIC (Stereum sanguinolentum): 3 µg/mL | MIC (Gloeophyllum trabeum [10]): 0.3 µg/mL
Compound: Cc1nn(C)c(F)c1C(=O)Nc1ccccc1C(C)CC(C)C (stereo not shown) [penflufen]
inhibition at 1 ppm (Coniophora puteana [2]): 100% | inhibition at 1 ppm (Coriolus versicolor [3]): 100% | inhibition at 1 ppm (Gloeophyllum trabeum [4]): 100% | inhibition at 1 ppm (Lentinus tigrinus [5]): 100% | inhibition at 1 ppm (Poria placenta [6]): 100% | activity against the wood-destroying fungus Poria placenta (Poria placenta [11]; [19]): very good activity | Loss of mass [%] (Poria placenta [11]; [20]): 0% | Loss of mass [%] (Poria placenta [11]; retention of penflufen 102 g/m^3): 0% | activity against the wood-destroying fungus Coniophora puteana (Coniophora puteana [12]; [19]): very good activity | Loss of mass [%] (Coniophora puteana [12]; [20]): 0% | Loss of mass [%] (Coniophora puteana [12]; retention of penflufen 103 g/m^3): 0%

Compound: CC1(C)C(C=C(Cl)Cl)C1C(=O)OCc1cccc(Oc2ccccc2)c1 (stereo not shown) [permethrin, reference compound]
MIC (Poria placenta [7]; [18]): > 100 µg/mL

Compound: CCCN(CCOc1c(Cl)cc(Cl)cc1Cl)C(=O)n1ccnc1 [prochloraz, reference compound]
MIC (Coniophora puteana [8]; read-out: MIC (ppm) Coniophora puteana): > 30 µg/mL | MIC (Lentinus tigrinus [9]): 20 µg/mL

Compound: CCCC1COC(Cn2cncn2)(c2ccc(Cl)cc2Cl)O1 (stereo not shown) [propiconazole, reference compound]
MIC (Coniophora puteana [8]; [16]): 3 µg/mL

Compound: CC(C)(C)C(O)(CCc1ccc(Cl)cc1)Cn1cncn1 (stereo not shown) [tebuconazole, reference compound]
MIC (Stereum sanguinolentum): 6 µg/mL

MIC (Coriolus versicolor [1]; [17]): 3 µg/mL
Compound: c1ccc2[nH]c(-c3cscn3)nc2c1 [thiabendazole, reference compound]
